Measured values published in ChEMBL document CHEMBL3585342, “Exploring the isoform selectivity of TGX-221 related pyrido[1,2-a]pyrimidinone-based Class IA PI 3-kinase inhibitors: synthesis, biological evaluation and molecular modelling” (Bioorg Med Chem, 2015).

Tests used:
[1] = target: Phosphatidylinositol 4,5-bisphosphate 3-kinase catalytic subunit beta isoform (Homo sapiens, UniProt P42338); assay type: cell-based, Sf9
Description: Inhibition of N-terminal His-tagged human p110beta expressed in Sf9 cells co-expressing p85alpha regulatory subunit using phosphatidylinositol substrate and [gamma-33P]-ATP by basic thin layer chromatography technique based lipid kinase assay

[2] = Inhibition of cell proliferation of human NZB5 cells containing wild-type p110alpha gene incubated for 5 days by [3H]thymidine incorporation assay; assay type: functional, cell-based
[3] = Inhibition of cell proliferation of human NZOV9 cells containing wild-type p53 protein and p110alpha Y1021C mutant incubated for 5 days by [3H]thymidine incorporation assay; assay type: functional, cell-based
[4] = target: Phosphatidylinositol 4,5-bisphosphate 3-kinase catalytic subunit alpha isoform (Homo sapiens, UniProt P42336); assay type: cell-based, Sf9
Phosphatidylinositol 4,5-bisphosphate 3-kinase catalytic subunit alpha isoform, sequence (P42336 whole entry, canonical isoform): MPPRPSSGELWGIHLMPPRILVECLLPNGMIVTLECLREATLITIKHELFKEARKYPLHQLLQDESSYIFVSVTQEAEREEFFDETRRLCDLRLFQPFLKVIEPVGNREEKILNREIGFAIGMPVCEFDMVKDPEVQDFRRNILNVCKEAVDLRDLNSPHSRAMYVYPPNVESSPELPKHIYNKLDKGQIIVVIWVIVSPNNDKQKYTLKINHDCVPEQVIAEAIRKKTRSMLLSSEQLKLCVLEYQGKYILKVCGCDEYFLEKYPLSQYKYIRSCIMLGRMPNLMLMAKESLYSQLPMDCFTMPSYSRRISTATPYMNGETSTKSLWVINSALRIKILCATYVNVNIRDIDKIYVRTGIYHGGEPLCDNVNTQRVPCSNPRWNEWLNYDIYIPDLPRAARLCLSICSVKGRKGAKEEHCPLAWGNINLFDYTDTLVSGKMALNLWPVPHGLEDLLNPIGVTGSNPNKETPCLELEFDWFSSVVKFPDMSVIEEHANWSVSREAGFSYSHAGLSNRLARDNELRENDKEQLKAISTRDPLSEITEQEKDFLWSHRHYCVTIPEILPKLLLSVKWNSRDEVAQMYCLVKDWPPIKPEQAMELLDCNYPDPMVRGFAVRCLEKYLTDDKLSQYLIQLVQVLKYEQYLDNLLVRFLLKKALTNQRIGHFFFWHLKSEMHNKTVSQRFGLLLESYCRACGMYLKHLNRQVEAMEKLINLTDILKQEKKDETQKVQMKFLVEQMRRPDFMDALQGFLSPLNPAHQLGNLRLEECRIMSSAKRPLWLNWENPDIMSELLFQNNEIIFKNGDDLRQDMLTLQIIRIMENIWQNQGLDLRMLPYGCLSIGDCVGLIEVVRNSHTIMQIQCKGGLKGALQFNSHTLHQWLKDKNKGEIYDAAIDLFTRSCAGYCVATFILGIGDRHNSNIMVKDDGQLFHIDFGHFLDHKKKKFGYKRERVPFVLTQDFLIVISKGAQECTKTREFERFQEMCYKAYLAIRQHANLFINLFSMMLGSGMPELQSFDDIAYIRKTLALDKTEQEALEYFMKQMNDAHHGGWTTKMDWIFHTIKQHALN
Description: Inhibition of N-terminal His-tagged human p110alpha expressed in Sf9 cells co-expressing p85alpha regulatory subunit using phosphatidylinositol substrate and [gamma-33P]-ATP by basic thin layer chromatography technique based lipid kinase assay

[5] = target: T1, Phosphatidylinositol 4,5-bisphosphate 3-kinase catalytic subunit delta isoform (Homo sapiens, UniProt O00329); assay type: cell-based, Sf9
T1 sequence (O00329 whole entry): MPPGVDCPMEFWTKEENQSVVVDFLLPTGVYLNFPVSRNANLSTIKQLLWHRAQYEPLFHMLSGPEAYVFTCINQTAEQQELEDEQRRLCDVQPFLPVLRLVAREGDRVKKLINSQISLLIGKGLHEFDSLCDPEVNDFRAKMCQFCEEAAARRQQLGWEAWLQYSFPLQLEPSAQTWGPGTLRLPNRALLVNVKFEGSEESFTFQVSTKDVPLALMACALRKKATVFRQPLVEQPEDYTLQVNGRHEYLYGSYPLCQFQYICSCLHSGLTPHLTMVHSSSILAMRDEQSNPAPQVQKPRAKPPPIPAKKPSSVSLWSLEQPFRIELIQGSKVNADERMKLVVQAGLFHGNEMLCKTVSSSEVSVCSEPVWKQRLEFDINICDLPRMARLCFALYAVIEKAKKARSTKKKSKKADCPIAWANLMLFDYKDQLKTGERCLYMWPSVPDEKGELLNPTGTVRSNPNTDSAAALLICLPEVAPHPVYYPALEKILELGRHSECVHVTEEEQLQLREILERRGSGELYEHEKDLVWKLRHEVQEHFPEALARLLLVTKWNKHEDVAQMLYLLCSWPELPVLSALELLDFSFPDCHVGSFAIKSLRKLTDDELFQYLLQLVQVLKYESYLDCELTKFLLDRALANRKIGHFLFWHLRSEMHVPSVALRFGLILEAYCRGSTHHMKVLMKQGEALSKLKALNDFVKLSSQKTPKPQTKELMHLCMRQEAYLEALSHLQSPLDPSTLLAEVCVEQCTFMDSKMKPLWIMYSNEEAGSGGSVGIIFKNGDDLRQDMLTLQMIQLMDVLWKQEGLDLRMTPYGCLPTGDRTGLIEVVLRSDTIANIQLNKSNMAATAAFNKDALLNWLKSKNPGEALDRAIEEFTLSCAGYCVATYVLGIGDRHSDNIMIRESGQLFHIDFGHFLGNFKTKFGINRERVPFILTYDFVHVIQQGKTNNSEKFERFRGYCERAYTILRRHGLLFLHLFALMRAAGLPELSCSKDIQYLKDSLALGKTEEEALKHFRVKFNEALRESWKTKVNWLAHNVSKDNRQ
Description: Inhibition of N-terminal His-tagged human p110delta expressed in Sf9 cells co-expressing p85alpha regulatory subunit using phosphatidylinositol substrate and [gamma-33P]-ATP by basic thin layer chromatography technique based lipid kinase assay

Phosphatidylinositol 4,5-bisphosphate 3-kinase catalytic subunit beta isoform, sequence (P42338 whole entry, canonical isoform): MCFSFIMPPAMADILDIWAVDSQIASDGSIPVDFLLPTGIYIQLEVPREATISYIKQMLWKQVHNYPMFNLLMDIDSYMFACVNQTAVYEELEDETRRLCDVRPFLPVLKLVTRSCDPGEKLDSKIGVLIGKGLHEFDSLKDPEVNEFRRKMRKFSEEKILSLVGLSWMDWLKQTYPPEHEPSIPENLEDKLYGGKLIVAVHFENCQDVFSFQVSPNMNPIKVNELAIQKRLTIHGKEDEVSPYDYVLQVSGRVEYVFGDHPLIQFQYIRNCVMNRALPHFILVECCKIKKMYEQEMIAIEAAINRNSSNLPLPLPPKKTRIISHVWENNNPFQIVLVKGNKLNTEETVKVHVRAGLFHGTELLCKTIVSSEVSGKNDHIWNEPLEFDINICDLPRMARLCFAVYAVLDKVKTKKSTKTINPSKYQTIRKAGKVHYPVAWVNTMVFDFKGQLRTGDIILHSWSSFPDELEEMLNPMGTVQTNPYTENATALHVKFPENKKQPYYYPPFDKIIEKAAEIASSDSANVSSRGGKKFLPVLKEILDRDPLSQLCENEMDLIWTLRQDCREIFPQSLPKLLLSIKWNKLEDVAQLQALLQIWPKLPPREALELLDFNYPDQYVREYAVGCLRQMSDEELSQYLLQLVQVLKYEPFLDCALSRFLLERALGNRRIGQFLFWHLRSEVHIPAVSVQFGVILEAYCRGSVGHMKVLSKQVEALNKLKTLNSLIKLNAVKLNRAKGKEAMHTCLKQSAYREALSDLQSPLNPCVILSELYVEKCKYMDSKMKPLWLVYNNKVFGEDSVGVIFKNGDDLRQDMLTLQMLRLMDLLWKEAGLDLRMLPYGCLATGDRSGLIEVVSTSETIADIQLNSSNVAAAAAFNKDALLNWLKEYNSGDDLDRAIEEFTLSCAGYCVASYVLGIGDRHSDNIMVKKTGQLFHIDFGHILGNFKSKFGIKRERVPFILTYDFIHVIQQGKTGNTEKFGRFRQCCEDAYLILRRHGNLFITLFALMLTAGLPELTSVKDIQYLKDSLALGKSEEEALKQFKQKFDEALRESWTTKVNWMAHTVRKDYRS

| Compound | IC50 [1] | IC50 [2] | IC50 [3] | IC50 [4] | IC50 [5] |
| --- | --- | --- | --- | --- | --- |
| Cc1cc(NCc2ccccc2C)c2nc(N3CCOCC3)cc(=O)n2c1 | 20 nM | 1500 nM | 5000 nM |  |  |
| O=c1cc(N2CCOCC2)nc2c(CS(=O)(=O)c3ccccc3)cccn12 | 4800 nM | > 20000 nM | > 20000 nM | > 10000 nM | > 10000 nM |
| O=c1cc(N2CCOCC2)nc2c(CNc3ccccc3)cccn12 | 30 nM |  |  | 1100 nM | 470 nM |
| CN(Cc1cccn2c(=O)cc(N3CCOCC3)nc12)c1ccccc1 | 30 nM | 12000 nM | 10000 nM | 790 nM | 270 nM |
| Cc1ccccc1NCc1cccn2c(=O)cc(N3CCOCC3)nc12 | 20 nM |  |  | 1800 nM | 470 nM |
| Cc1cccc(NCc2cccn3c(=O)cc(N4CCOCC4)nc23)c1 | 240 nM | 3000 nM |  | 1100 nM | 810 nM |
| Cc1ccc(NCc2cccn3c(=O)cc(N4CCOCC4)nc23)cc1 | 4600 nM | 5500 nM | 5800 nM | 6800 nM | 710 nM |
| O=c1cc(N2CCOCC2)nc2c(CNc3ccc(Cl)cc3)cccn12 | 310 nM | > 20000 nM | 15000 nM | 3100 nM | 1100 nM |
| COc1ccc(NCc2cccn3c(=O)cc(N4CCOCC4)nc23)cc1 | 2100 nM | 340 nM | 9600 nM | 350 nM | 240 nM |
| Cc1ccc(S(=O)(=O)NCc2cccn3c(=O)cc(N4CCOCC4)nc23)cc1 | 7400 nM | 18000 nM | > 20000 nM | 6500 nM | 600 nM |
| O=c1cc(N2CCOCC2)nc2c(CSc3ccccc3)cccn12 | 570 nM | 7800 nM | 6300 nM | 1500 nM | 570 nM |
| O=c1cc(N2CCOCC2)nc2c(COc3ccccc3)cccn12 | 230 nM | 17000 nM | 11000 nM | 1500 nM | 470 nM |
| Cc1ccc(OCc2cccn3c(=O)cc(N4CCOCC4)nc23)cc1 | 1000 nM | 13000 nM | 8200 nM | 2500 nM | 550 nM |
| COc1ccc(OCc2cccn3c(=O)cc(N4CCOCC4)nc23)cc1 | 1400 nM | 13000 nM | 14000 nM | 1600 nM | 460 nM |
| N#Cc1ccc(OCc2cccn3c(=O)cc(N4CCOCC4)nc23)cc1 | 1000 nM | > 20000 nM | 18000 nM | > 10000 nM | 1500 nM |
| Cc1cc(Nc2ccccc2)c2nc(N3CCOCC3)cc(=O)n2c1 | 450 nM | 1200 nM | 3000 nM | 1700 nM | 410 nM |
| Cc1cc(N(C)c2ccccc2)c2nc(N3CCOCC3)cc(=O)n2c1 | 670 nM | 2000 nM | 5000 nM | 4400 nM | 900 nM |
| Cc1cc(Nc2ccccc2C)c2nc(N3CCOCC3)cc(=O)n2c1 | 1100 nM |  | 2200 nM | 1500 nM | 310 nM |
| Cc1cccc(Nc2cc(C)cn3c(=O)cc(N4CCOCC4)nc23)c1 | 1200 nM | 900 nM | 600 nM | > 1000 nM | 470 nM |
| Cc1ccc(Nc2cc(C)cn3c(=O)cc(N4CCOCC4)nc23)cc1 | 3200 nM | 1000 nM | 1600 nM | 2900 nM | 1000 nM |
| Cc1cc(Nc2c(C)cccc2C)c2nc(N3CCOCC3)cc(=O)n2c1 | 2100 nM | 1500 nM | 1300 nM | 3900 nM | 500 nM |
| Cc1cc(NCc2ccccc2)c2nc(N3CCOCC3)cc(=O)n2c1 | 150 nM | 100 nM | 500 nM | 500 nM | 230 nM |
| Cc1cccc(CNc2cc(C)cn3c(=O)cc(N4CCOCC4)nc23)c1 | 130 nM | 400 nM | 1300 nM | 400 nM | 200 nM |

| Compound | IC50 [1] | IC50 [2] | IC50 [3] | IC50 [4] | IC50 [5] |
| --- | --- | --- | --- | --- | --- |
| Cc1ccc(CNc2cc(C)cn3c(=O)cc(N4CCOCC4)nc23)cc1 | 1800 nM | 400 nM | > 20000 nM | 900 nM | 640 nM |
| Cc1cc(NCc2ccccn2)c2nc(N3CCOCC3)cc(=O)n2c1 | 420 nM | 2400 nM | 7000 nM | 2000 nM | 800 nM |
| Cc1cc(NCc2cccnc2)c2nc(N3CCOCC3)cc(=O)n2c1 | 590 nM | 8200 nM | 7900 nM | > 10000 nM | 450 nM |
| Cc1cc(NCc2ccncc2)c2nc(N3CCOCC3)cc(=O)n2c1 | 4200 nM | 14000 nM | 14000 nM | 4900 nM | 710 nM |
| Cc1cc(N[C@@H](C)c2ccccc2)c2nc(N3CCOCC3)cc(=O)n2c1 | 210 nM | 700 nM | 600 nM | 2200 nM | 270 nM |
| Cc1cc(N[C@H](C)c2ccccc2)c2nc(N3CCOCC3)cc(=O)n2c1 | 2300 nM | 700 nM | 800 nM | 2700 nM | 800 nM |
| O=C(Nc1ccccc1)c1cccn2c(=O)cc(N3CCOCC3)nc12 | 3600 nM | 2000 nM | 7000 nM | 490 nM | 150 nM |
| Cc1ccccc1NC(=O)c1cccn2c(=O)cc(N3CCOCC3)nc12 | 1500 nM | > 20000 nM | 11000 nM | 1800 nM | 530 nM |
| Cc1cccc(NC(=O)c2cccn3c(=O)cc(N4CCOCC4)nc23)c1 | 3900 nM | 8000 nM | 2800 nM | 850 nM | 300 nM |
| Cc1ccc(NC(=O)c2cccn3c(=O)cc(N4CCOCC4)nc23)cc1 | > 10000 nM | > 20000 nM | > 20000 nM | 1200 nM | 140 nM |
| O=C(NCc1ccccn1)c1cccn2c(=O)cc(N3CCOCC3)nc12 | > 10000 nM | 20000 nM | > 20000 nM | 4800 nM | > 10000 nM |
| O=C(NCc1cccnc1)c1cccn2c(=O)cc(N3CCOCC3)nc12 | > 10000 nM | 18000 nM | > 20000 nM | 6500 nM | > 10000 nM |
| O=C(NCc1ccncc1)c1cccn2c(=O)cc(N3CCOCC3)nc12 | > 10000 nM | 12000 nM | > 20000 nM | 6400 nM | > 10000 nM |
| O=C(Nc1cccn2c(=O)cc(N3CCOCC3)nc12)c1ccccc1 | 1800 nM | 10000 nM | 2500 nM | 510 nM | 220 nM |
| Cc1ccccc1C(=O)Nc1cccn2c(=O)cc(N3CCOCC3)nc12 | 2400 nM | 5500 nM | 800 nM | 810 nM | 270 nM |
| Cc1cccc(C(=O)Nc2cccn3c(=O)cc(N4CCOCC4)nc23)c1 | 1800 nM | 6000 nM | 800 nM | 570 nM | 470 nM |
| Cc1ccc(C(=O)Nc2cccn3c(=O)cc(N4CCOCC4)nc23)cc1 | 1900 nM | 900 nM | 800 nM | 1360 nM | 30 nM |
| O=c1cc(N2CCOCC2)nc2c(NS(=O)(=O)c3ccccc3)cccn12 | > 10000 nM | 6000 nM | 500 nM | > 10000 nM | 1700 nM |
| O=C(Nc1ccccc1)Nc1cccn2c(=O)cc(N3CCOCC3)nc12 | 630 nM | 7200 nM | 2900 nM | 600 nM | 480 nM |
| O=C(Nc1cccn2c(=O)cc(N3CCOCC3)nc12)Oc1ccccc1 | 9100 nM | 7000 nM | 2500 nM | 9000 nM | 1800 nM |
| Cc1cc(C(C)Nc2ccccc2)c2nc(N3CCOCC3)cc(=O)n2c1 (racemic) |  | 2800 nM | 1200 nM | 1000 nM | 140 nM |
| Cc1cc(C(C)N(C)c2ccccc2)c2nc(N3CCOCC3)cc(=O)n2c1 (racemic) | 20 nM |  |  | 1500 nM | 220 nM |
